Data from PubChem BioAssay AID248 (DTP/NCI, 2004).
Values joined by “and” are separate entries in the source; they are usually repeats but may differ in a detail not shown here. Equal values may be shown once. Toxic doses and inconclusive results are not listed. Cut-off read from the data, not from the text of the source: active = T/C of 150% or more; inactive = T/C below 125%.

Test system: L1210 leukemia ip in BDF1 mice, survival T/C
Assay: NCI In Vivo Anticancer Drug Screen. Data for tumor model L1210 Leukemia (intraperitoneal) in B6D2F1 (BDF1) mice
Conditions: endpoint: mean survival time, higher = longer survival
Outline: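 Transplanted-tumor mice were given test agent; controls received vehicle only. Survival readings from the two groups were divided (treated over control).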

[1] = dose: 100.0 mg/kg/injection, schedule: Q04DX002 (ip), vehicle: Klucel (hydroxypropylcellulose) (HPC)
[2] = dose: 200.0 mg/kg/injection, schedule: Q04DX002 (ip), vehicle: Klucel (hydroxypropylcellulose) (HPC)
[3] = dose: 400.0 mg/kg/injection, schedule: Q04DX002 (ip), vehicle: Klucel (hydroxypropylcellulose) (HPC)
[4] = dose: 100.0 mg/kg/injection, schedule: Q04DX003 (ip), vehicle: saline with Tween-80
[5] = dose: 200.0 mg/kg/injection, schedule: Q04DX003 (ip), vehicle: saline with Tween-80
[6] = dose: 400.0 mg/kg/injection, schedule: Q04DX003 (ip), vehicle: saline with Tween-80
[7] = dose: 100.0 mg/kg/injection, schedule: Q01DX009 (ip), vehicle: Klucel (hydroxypropylcellulose) (HPC)
[8] = dose: 100.0 mg/kg/injection, schedule: Q04DX003 (ip), vehicle: Klucel (hydroxypropylcellulose) (HPC)
[9] = dose: 200.0 mg/kg/injection, schedule: Q01DX009 (ip), vehicle: Klucel (hydroxypropylcellulose) (HPC)
[10] = dose: 200.0 mg/kg/injection, schedule: Q04DX003 (ip), vehicle: Klucel (hydroxypropylcellulose) (HPC)
[11] = dose: 400.0 mg/kg/injection, schedule: Q01DX009 (ip), vehicle: Klucel (hydroxypropylcellulose) (HPC)
[12] = dose: 400.0 mg/kg/injection, schedule: Q04DX003 (ip), vehicle: Klucel (hydroxypropylcellulose) (HPC)
[13] = dose: 100.0 mg/kg/injection, schedule: Q01DX001 (ip), vehicle: carboxymethylcellulose (CMC)
[14] = dose: 200.0 mg/kg/injection, schedule: Q01DX001 (ip), vehicle: carboxymethylcellulose (CMC)
[15] = dose: 400.0 mg/kg/injection, schedule: Q01DX001 (ip), vehicle: carboxymethylcellulose (CMC)
[16] = dose: 100.0 mg/kg/injection, schedule: Q01DX009 (ip), vehicle: saline with Tween-80
[17] = dose: 200.0 mg/kg/injection, schedule: Q01DX009 (ip), vehicle: saline with Tween-80
[18] = dose: 100.0 mg/kg/injection, schedule: Q01DX001 (ip), vehicle: other
[19] = dose: 200.0 mg/kg/injection, schedule: Q01DX001 (ip), vehicle: other
[20] = dose: 400.0 mg/kg/injection, schedule: Q01DX001 (ip), vehicle: other

Measured: T/C

Cc1ccc(NC(=O)COc2ccc(Cl)cc2Cl)cc1NC(=O)COc1ccc(Cl)cc1Cl
inactive: [1] 89 % of control | [2] 92 % of control | [3] 100 % of control

Nc1nc(N)c(N=O)c(Nc2ccc(Br)cc2)n1
inactive: dose: 60.0 mg/kg/injection, schedule: Q01DX Z (ip), vehicle: methylcellulose (MC) 108 % of control | dose: 120.0 mg/kg/injection, schedule: Q01DX Z (ip), vehicle: methylcellulose (MC) 103 % of control

COc1ccc(-c2cnc(=S)[nH]c2N)cc1
inactive: dose: 100.0 mg/kg/injection, schedule: Q01DX001 (ip), vehicle: Klucel (hydroxypropylcellulose) (HPC) 116 % of control | dose: 200.0 mg/kg/injection, schedule: Q01DX001 (ip), vehicle: Klucel (hydroxypropylcellulose) (HPC) 121 % of control | dose: 400.0 mg/kg/injection, schedule: Q01DX001 (ip), vehicle: Klucel (hydroxypropylcellulose) (HPC) 119 % of control

CN1CC(=O)n2c(cc3ccccc32)C1=O
inactive: dose: 100.0 mg/kg/injection, schedule: Q04DX002 (ip), vehicle: saline 110 % of control | dose: 400.0 mg/kg/injection, schedule: Q04DX002 (ip), vehicle: saline 105 % of control

CN(C)C(=O)Sc1cccc([N+](=O)[O-])c1
inactive: [4] 109 % of control | [5] 111 % of control | [6] 103 % of control

O=C(O)c1c(Cl)c(Cl)c(Cl)c(Cl)c1C(=O)c1ccccc1
inactive: dose: 75.0 mg/kg/injection, schedule: Q01DX001 (ip), vehicle: saline 109 % of control | dose: 150.0 mg/kg/injection, schedule: Q01DX001 (ip), vehicle: saline 113 % of control | dose: 300.0 mg/kg/injection, schedule: Q01DX001 (ip), vehicle: saline 101 % of control

CC1(C)C2CCC1C(CO)C2 (stereo not drawn)
inactive: [7] 94 % of control | [8] 96 % of control | [9] 104 % of control | [10] 107 % of control | [11] 100 % of control | [12] 102 % of control

O=C1CCc2ccccc2C(=O)C1c1ccc(Cl)cc1 (stereo not drawn)
inactive: [4] 90 % of control | [5] 97 % of control | [6] 93 % of control

CCCCCC1CCC(C(=O)O)CC1 (stereo not drawn)
inactive: [4] 88 % of control | [5] 93 % of control

CC[N+](CC)(CC)CC(=O)NCc1ccco1
inactive: dose: 50.0 mg/kg/injection, schedule: Q01DX001 (ip), vehicle: carboxymethylcellulose (CMC) 105 % of control | dose: 50.0 mg/kg/injection, schedule: Q01DX009 (ip), vehicle: carboxymethylcellulose (CMC) 103 % of control | dose: 50.0 mg/kg/injection, schedule: Q04DX003 (ip), vehicle: carboxymethylcellulose (CMC) 94 % of control | [13] 99 % of control | dose: 100.0 mg/kg/injection, schedule: Q01DX009 (ip), vehicle: carboxymethylcellulose (CMC) 103 % of control and 104 % of control | dose: 100.0 mg/kg/injection, schedule: Q04DX002 (ip), vehicle: carboxymethylcellulose (CMC) 95 % of control and 103 % of control | dose: 100.0 mg/kg/injection, schedule: Q04DX003 (ip), vehicle: carboxymethylcellulose (CMC) 102 % of control | [14] 99 % of control | dose: 200.0 mg/kg/injection, schedule: Q01DX009 (ip), vehicle: carboxymethylcellulose (CMC) 101 % of control and 90 % of control | dose: 200.0 mg/kg/injection, schedule: Q04DX002 (ip), vehicle: carboxymethylcellulose (CMC) 97 % of control and 92 % of control | dose: 200.0 mg/kg/injection, schedule: Q04DX003 (ip), vehicle: carboxymethylcellulose (CMC) 102 % of control | dose: 400.0 mg/kg/injection, schedule: Q04DX002 (ip), vehicle: carboxymethylcellulose (CMC) 90 % of control

CCCC1(CCC)NC(=O)N(CC(N)=O)C1=O
inactive: [4] 100 % of control | [5] 102 % of control | [6] 98 % of control

O=C1c2ccccc2-c2ccc([N+](=O)[O-])c(Br)c21
inactive: [13] 106 % of control | [14] 106 % of control | [15] 102 % of control

O=C1C(Cl)=C(Cl)C(=O)C2=C1C1c3ccccc3C2c2ccccc21
inactive: [8] 86 % of control | [10] 94 % of control | [12] 89 % of control

COc1ccc(C2CC(O)C3CCC2C3)cc1 (stereo not drawn)
inactive: [1] 93 % of control | [2] 97 % of control | [3] 93 % of control

O=[N+]([O-])c1ccc(C(Br)C(Br)c2ccccc2Cl)cc1 (stereo not drawn)
inactive: [7] 96 % of control | [8] 110 % of control | [9] 98 % of control | [10] 100 % of control | [11] 93 % of control | [12] 94 % of control

CCOC(=O)CCC[P+](c1ccccc1)(c1ccccc1)c1ccccc1
inactive: [16] 107 % of control | [17] 113 % of control

N#CCC(c1ccccc1)C(C#N)c1ccccc1 (stereo not drawn)
inactive: dose: 75.0 mg/kg/injection, schedule: Q01DX001 (ip), vehicle: carboxymethylcellulose (CMC) 97 % of control | dose: 150.0 mg/kg/injection, schedule: Q01DX001 (ip), vehicle: carboxymethylcellulose (CMC) 93 % of control

C=C(C)C#CC(O)(C(=O)OCC)C1CCCC1 (stereo not drawn)
inactive: [18] 100 % of control | [19] 93 % of control | [20] 93 % of control

O=C(CCCc1ccc([N+](=O)[O-])cc1)Nc1ccc(S(=O)(=O)F)cc1
inactive: dose: 100.0 mg/kg/injection, schedule: Q01DX001 (ip), vehicle: saline 101 % of control | dose: 200.0 mg/kg/injection, schedule: Q01DX001 (ip), vehicle: saline 100 % of control | dose: 400.0 mg/kg/injection, schedule: Q01DX001 (ip), vehicle: saline 97 % of control

CCCCN1C(=O)CSC1=S
inactive: [1] 97 % of control | [2] 113 % of control | [3] 100 % of control

COc1cc2c(cc1C(C)C)CCC1C(C)(C#N)CCCC21C (stereo not drawn)
inactive: [16] 96 % of control | [4] 100 % of control | [17] 89 % of control | [5] 96 % of control | dose: 400.0 mg/kg/injection, schedule: Q01DX009 (ip), vehicle: saline with Tween-80 92 % of control | [6] 100 % of control

CC(C)NCC(C#N)C1CCCCC1 (stereo not drawn)
inactive: dose: 100.0 mg/kg/injection, schedule: Q01DX001 (ip), vehicle: saline with Tween-80 97 % of control | dose: 200.0 mg/kg/injection, schedule: Q01DX001 (ip), vehicle: saline with Tween-80 93 % of control | dose: 400.0 mg/kg/injection, schedule: Q01DX001 (ip), vehicle: saline with Tween-80 97 % of control

Clc1nc(Cl)c2c3c(sc2n1)CCCC3
inactive: dose: 100.0 mg/kg/injection, schedule: Q01DX001 (ip), vehicle: saline sonified 92 % of control | dose: 200.0 mg/kg/injection, schedule: Q01DX001 (ip), vehicle: saline sonified 107 % of control | dose: 400.0 mg/kg/injection, schedule: Q01DX001 (ip), vehicle: saline sonified 90 % of control

NC(=O)Nc1ccc(Cl)cc1
inactive: [16] 101 % of control | [8] 99 % of control | [17] 96 % of control | [10] 91 % of control | [12] 102 % of control

CCOc1ccccc1NC(=S)NC1CCCCC1
inactive: [7] 97 % of control | [9] 100 % of control

Nc1cc(Cl)ccc1Oc1ccc(Cl)cc1
inactive: dose: 37.5 mg/kg/injection, schedule: Q01DX009 (ip), vehicle: Klucel (hydroxypropylcellulose) (HPC) 103 % of control | dose: 75.0 mg/kg/injection, schedule: Q01DX009 (ip), vehicle: Klucel (hydroxypropylcellulose) (HPC) 98 % of control | dose: 150.0 mg/kg/injection, schedule: Q01DX009 (ip), vehicle: Klucel (hydroxypropylcellulose) (HPC) 95 % of control

CC(=O)Oc1ccc(Br)cc1C=O
inactive: [13] 100 % of control | [14] 94 % of control | [15] 103 % of control

CCCCCCCCCCCC(=O)N/N=C/c1ccccc1OC
inactive: dose: 25.0 mg/kg/injection, schedule: Q01DX009 (ip), vehicle: Klucel (hydroxypropylcellulose) (HPC) 90 % of control | dose: 50.0 mg/kg/injection, schedule: Q01DX009 (ip), vehicle: Klucel (hydroxypropylcellulose) (HPC) 94 % of control | [7] 87 % of control and 90 % of control

CC1CCC2(NC1)OC1CC3C4CCC5CC(O)CCC5(C)C4CCC3(C)C1C2C (stereo not drawn)
inactive: [18] 94 % of control | [19] 91 % of control | [20] 94 % of control

O=[N+]([O-])c1ccc2c(c1)S(=O)c1ccccc1-2 (stereo not drawn)
inactive: [4] 109 % of control | [5] 94 % of control
